Data: article PMC6720825, “Thiol-ene "Click" Synthesis and Pharmacological Evaluation of C-Glycoside sp^2-Iminosugar Glycolipids” (Molecules, 2019)
Entries after “also recorded” stand apart in the source; their conditions may differ. Where two headings read alike, the source gives them in different places.

What was measured:
THP-1 cells = experiment: Cellular toxicity (MTT assay) in THP-1 cells; type: cell-based, human; settings: for EC50: Homo sapiens, THP-1, MTT assay, 72 h at 37 °C; for SI (EC50 THP-1/EC50 parasite): Selectivity Index
Protocol: Human myelomonocytic cell line THP-1 was grown at 37 °C and 5% CO2 in RPMI-1640 supplemented with 10% iFBS, 2 mM […], 100 U/mL penicillin, and 100 μg/mL streptomycin; 3 × 10^4 cells/well in 96-well plates were differentiated to macrophages with 20 ng/mL of PMA treatment for 48 h followed by 24 h of culture in fresh medium. Cellular toxicity of all compounds was determined using the colorimetric MTT-based assay after incubation at 37 °C for 72 h in the presence of increasing concentrations of compounds [71].

[1] = test system: human lung fibroblast MRC-5 cells; experiment: Cellular toxicity (MTT assay) in MRC-5 cells; type: cell-based; settings: for EC50: Homo sapiens, MRC5, MTT assay, 72 h at 37 °C; for SI (EC50 MRC-5/EC50 parasite): Selectivity Index
[2] = test system: intracellular amastigotes of Leishmania donovani MHOM/ET/67/HU3 line; experiment: Susceptibility of intracellular Leishmania amastigotes (luciferase assay); type: cell-based; settings: L. donovani in THP-1 macrophages, 72 h at 37 °C, threshold 20 μM
Protocol: The leishmanicidal activity of all the synthesized sp^2-iminosugar C-glycosides (1–12) was evaluated against intracellular amastigotes of Leishmania donovani MHOM/ET/67/HU3 line with luciferase gene integrated into the parasite genome. […] A strong influence of the nature of the lipid chain α-linked to the pseudoanomeric position of the bicyclic core in the sp^2-IGLs was inferred from the corresponding data. […] The longer-chain sp^2-IGLs 2 and 8 were over the 20 μM concentration threshold in this assay. In the sulfone series, the results evidenced some disparity between the ONJ and OGJ epimers.
Macrophage-differentiated THP-1 cells, which are considered a suitable model for human macrophages, were plated at a density of 3 × 10^4 or 3 × 10^5 macrophages/well in 96-well white polystyrene microplates or 24-well tissue culture chamber slides, respectively, and were infected at a macrophage/parasite ratio of 1:10 with L. donovani promastigotes. Twenty-four hours after infection at 35 °C and 5% CO2, extracellular parasites were removed by washing with serum-free medium. Infected cell cultures were then incubated at different compound concentrations in RPMI 1640 medium plus 10% iFBS at 37 °C with 5% CO2 for 72 h. To determine the susceptibility of L. donovani LUC amastigotes, infected macrophages maintained in 96-well plates were lysed and then luminescence intensity was measured as indicative of the intracellular parasite growth, using the Luciferase Assay System Kit (Promega, Madison, Wis.) according to the instructions of the supplier. To determine the susceptibility of L. donovani HU3 amastigotes, infected macrophages maintained in 24-well plates were fixed for 30 min at 4 °C with 2.5% paraformaldehyde phosphate-buffered saline (PBS; 1.2 mM KH2PO4, 8.1 mM Na2HPO4, 130 mM NaCl, and 2.6 mM KCl adjusted to pH 7) and permeabilized with 0.1% Triton X-100 in PBS for 30 min. Intracellular parasites and macrophages were detected by nuclear staining with ProLong® Gold antifade reagent plus DAPI (Invitrogen). The percentage infection and mean number of amastigotes from infected macrophages were determined with 200 macrophages/well.

[3] = test system: human solid tumor cell lines A549, SW1573 (lung), HBL-100, T-47D (breast), HeLa (cervix), WiDr (colon); experiment: Antiproliferative activity (SRB assay) against a panel of six human solid tumor cell lines; type: cell-based; settings: for GI50 (concentration to achieve 50% growth inhibition): 48 h, tested 1 to 100 μM, only values below 100 μM significant; for GI50: read-out: GI50 (concentration to achieve 50% growth inhibition), 48 h, tested 1 to 100 μM, only values below 100 μM significant
Protocol: The antiproliferative activity of all the sp^2-iminosugar C-glycosides (1–12) was evaluated against a panel of six representative human solid tumor cell lines including lung (A549 and SW1573), breast (HBL-100, T-47D), cervix (HeLa), and colon (WiDr).
All reagents were used as purchased from commercial suppliers without further purification. The human solid tumor cell lines A549 (lung), HBL-100 (breast), HeLa (cervix), SW1573 (lung), T-47D (breast), and WiDr (colon) were used in this study. These cell lines were a kind gift from Prof. G. J. Peters (VU Medical Center, Amsterdam, The Netherlands).
Cells were inoculated onto 96-well microtiter plates in a volume of 100 μL per well at densities of 2500 (A549, HBL-100, HeLa, and SW1573) and 5000 (T-47D and WiDr) cells per well, based on their doubling times. Compounds were initially dissolved in DMSO at 400 times the desired final maximum test concentration. Control cells were exposed to an equivalent concentration of DMSO (0.25% v/v, negative control). Each agent was tested in triplicate at different dilutions in the range of 1 to 100 μM. The drug treatment started on day 1 after plating. Drug incubation times were 48 h, after which cells were precipitated with 25 μL ice-cold TCA (50% w/v) and fixed for 60 min at 4 °C. Then the SRB assay was performed. The optical density (OD) of each well was measured at 530 nm, using BioTek’s PowerWave XS Absorbance Microplate Reader. Values were corrected for background OD from wells only containing medium. The antiproliferative activity for each compound, expressed as GI50 values, was calculated according to NCI formulas.

α-Glcase (Yeast Maltase) = target: T1, α-Glcase (Yeast Maltase) (Saccharomyces cerevisiae, UniProt P53341); experiment: Glycosidase inhibition (Ki), yeast maltase α-glucosidase; type: biochemical
T1 construct: purchased
From the text: The inhibitory properties of the new sp^2-IGLs 1–12 and the α-C-allyl ONJ and OGJ glycosides 15, and 24 were examined against a panel of commercial glycosidases that included the α-glucosidases maltase (Saccharomyces cerevisiae) and amyloglucosidase (Aspergillus niger), the β-glucosidases from almonds and bovine liver, α-galactosidase from green coffee beans, β-galactosidase from Escherichia coli, α-mannosidase from Jack beans, and β-mannosidase from Helix pomatia. The corresponding inhibition constant (Ki) values are collected in Table 1.
Inhibition constant (Ki) values were determined by spectrophotometrically measuring the residual hydrolytic activities of the glycosidases against the respective o- (for β-galactosidase from E. coli) or p-nitrophenyl α- or β-D-glycopyranoside (for other glycosidases) in the presence of the iminosugars. Each assay was performed in phosphate buffer or phosphate-citrate buffer (for α- or β-mannosidase and amyloglucosidase) at the optimal pH for the enzymes. The reactions were initiated by addition of the enzyme to a solution of the substrate in the absence or presence of various inhibitor concentrations. The mixture was incubated for 10–30 min at 37 °C or 55 °C (for amyloglucosidase) and the reaction was quenched by addition of 1 M Na2CO3. Reaction times were appropriate to obtain 10–20% conversion of the substrate in order to achieve linear rates. The absorbance of the resulting mixture was determined at 405 nm. Approximate value of Ki was determined from the slope of Dixon plots using a fixed concentration of substrate (around the Km value for the different glycosidases) and various concentrations of inhibitor. Full Ki determinations and enzyme inhibition mode were determined from the slope of Lineweaver–Burk plots and double reciprocal analysis. Representative examples of Dixon and Lineweaver–Burk plots are shown in the Supplementary materials.

[4] = mean ± SD, three independent determinations, competitive inhibition
[5] = mean ± SD, three independent determinations, competitive inhibition, read-out: Ki, α-Glcase (Yeast Maltase)

T1 sequence (P53341 whole entry): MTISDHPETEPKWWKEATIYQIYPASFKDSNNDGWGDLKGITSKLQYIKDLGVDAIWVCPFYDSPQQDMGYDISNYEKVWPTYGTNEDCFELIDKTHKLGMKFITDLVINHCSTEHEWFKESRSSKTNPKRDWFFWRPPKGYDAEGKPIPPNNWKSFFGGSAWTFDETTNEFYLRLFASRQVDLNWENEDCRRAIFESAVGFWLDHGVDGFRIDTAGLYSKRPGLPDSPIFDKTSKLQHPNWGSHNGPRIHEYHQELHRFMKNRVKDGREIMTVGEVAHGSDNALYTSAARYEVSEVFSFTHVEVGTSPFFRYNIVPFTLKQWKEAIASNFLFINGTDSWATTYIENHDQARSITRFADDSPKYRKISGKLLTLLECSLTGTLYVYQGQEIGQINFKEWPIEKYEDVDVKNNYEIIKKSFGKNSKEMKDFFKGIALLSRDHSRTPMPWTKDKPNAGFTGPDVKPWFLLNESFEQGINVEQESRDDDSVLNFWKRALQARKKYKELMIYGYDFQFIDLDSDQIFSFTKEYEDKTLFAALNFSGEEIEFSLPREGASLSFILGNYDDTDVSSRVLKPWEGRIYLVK

SMILES | EC50 (THP-1 cells) [µM] | EC50 [1] [µM] | SI (EC50 MRC-5/EC50 parasite) [1] | EC50 [2] [µM] | GI50 (concentration to achieve 50% growth inhibition) [3] | GI50 [3] [µM] | Ki, α-Glcase (Yeast Maltase) (α-Glcase (Yeast Maltase); [4]) | SI (EC50 THP-1/EC50 parasite) (THP-1 cells) | Ki (α-Glcase (Yeast Maltase); [5]) [µM] | Ki (α-Glcase (Yeast Maltase)) [µM]
CC(C)(C)OC(=O)NCCS(=O)(=O)CCC[C@@H]1[C@H](O)[C@@H](O)[C@@H](O)[C@H]2COC(=O)N12 [Compound 12, (1R)-1-[3-(N-tert-Butoxycarbonylaminoethylsulfonyl)propyl]-5N,6O-oxomethylidene-1-deoxygalactonojirimycin] | > 200 | 182 ± 14.9 | < 9.08 | > 20 | did not show any significant antiproliferative activity | > 100 | n.i. | – | – | –
CCCCCCCCCCCCS(=O)(=O)CCC[C@@H]1[C@H](O)[C@@H](O)[C@@H](O)[C@H]2COC(=O)N12 [Compound 11, (1R)-1-[3-(Dodecylsulfonyl)propyl]-5N,6O-oxomethylidene-1-deoxygalactonojirimycin] | > 200 | 162 ± 20.2 | < 8.10 | > 20 | – | 26 to 82 | n.i. | – | – | –
CCCCCCCCSCCC[C@@H]1[C@H](O)[C@@H](O)[C@H](O)[C@H]2COC(=O)N12 [Compound 1, (1R)-1-[3-(Octylthio)propyl)-5N,6O-oxomethylidene-1-deoxynojirimycin] | 131 ± 4.29 | 32.2 ± 1.03 | 4.19 | 7.68 ± 0.29 | – | 14 to 54 | – | 17.06 | 0.34 ± 0.02 | –
CCCCCCCCS(=O)(=O)CCC[C@@H]1[C@H](O)[C@@H](O)[C@@H](O)[C@H]2COC(=O)N12 [Compound 10, (1R)-1-[3-(Octylsulfonyl)propyl]-5N,6O-oxomethylidene-1-deoxygalactonojirimycin] | > 200 | 185 ± 21.2 | 13.40 | 13.8 ± 1.72 | – | > 100 | n.i. | – | – | –
CCCCCCCCCCCCSCCC[C@@H]1[C@H](O)[C@@H](O)[C@@H](O)[C@H]2COC(=O)N12 [Compound 8, (1R)-1-[3-(Dodecylthio)propyl]-5N,6O-oxomethylidene-1-deoxygalactonojirimycin] | 68.3 ± 3.04 | 32.1 ± 1.94 | < 1.60 | > 20 | – | 9.6 to 19 | did not inhibit and n.i. | < 3.42 | – | –
CCCCCCCCS(=O)(=O)CCC[C@@H]1[C@H](O)[C@@H](O)[C@H](O)[C@H]2COC(=O)N12 [Compound 4, (1R)-1-[3-(Octylsulfonyl)propyl]-5N,6O-oxomethylidene-1-deoxynojirimycin] | > 200 | 189 ± 15.6 | < 9.45 | > 20 | – | > 100 | – | – | 2.6 ± 0.3 | –
CCCCCCCCCCCCSCCC[C@@H]1[C@H](O)[C@@H](O)[C@H](O)[C@H]2COC(=O)N12 [Compound 2, (1R)-1-[3-(Dodecylthio)propyl]-5N,6O-oxomethylidene-1-deoxynojirimycin] | 72.2 ± 4.18 | 19.9 ± 2.76 | < 1 | > 20 | – | 9.6 to 19 | nanomolar competitive inhibitor | < 3.61 | 0.74 ± 0.03 | –
CCCCCCCCCCCCS(=O)(=O)CCC[C@@H]1[C@H](O)[C@@H](O)[C@H](O)[C@H]2COC(=O)N12 [Compound 5, (1R)-1-[3-(Dodecylsulfonyl)propyl]-5N,6O-oxomethylidene-1-deoxynojirimycin] | 100 ± 10.9 | 71.5 ± 3.75 | 6.25 | 11.4 ± 5.08 | – | 26 to 82 | – | 8.78 | 2.5 ± 0.2 | –
C[C@@H]1[C@H](O)[C@@H](C)/C=C/C=C/C=C/C=C/C=C/C=C/C=C/[C@H](O[C@@H]2O[C@H](C)[C@@H](O)[C@H](N)[C@@H]2O)C[C@@H]2O[C@](O)(C[C@@H](O)C[C@@H](O)[C@H](O)CC[C@@H](O)C[C@@H](O)CC(=O)O[C@H]1C)C[C@H](O)[C@H]2C(=O)O [AmB, amphotericin B, reference compound] | 20.1 ± 4.43 | 16.9 ± 2.44 | 112.87 | 0.15 ± 0.01 | – | – | – | 133.80 | – | –
CC(C)(C)OC(=O)NCCSCCC[C@@H]1[C@H](O)[C@@H](O)[C@H](O)[C@H]2COC(=O)N12 [Compound 3, (1R)-1-[3-(N-tert-Butoxycarbonylaminoethylthio)propyl]-5N,6O-oxomethylidene-1-deoxynojirimycin] | > 200 | 134 ± 6.02 | 8.95 | 15 ± 1.28 | did not show any significant antiproliferative activity; also recorded: out of range; also recorded: did not display significant antiproliferative activity | > 100 | – | – | – | 0.28 ± 0.02
CC(C)(C)OC(=O)NCCS(=O)(=O)CCC[C@@H]1[C@H](O)[C@@H](O)[C@H](O)[C@H]2COC(=O)N12 [Compound 6, (1R)-1-[3-(N-tert-Butoxycarbonylaminoethylsulfonyl)propyl]-5N,6O-oxomethylidene-1-deoxynojirimycin] | > 200 | 155 ± 3.1 | < 7.76 | > 20 | did not show any significant antiproliferative activity | > 100 | – | – | 0.75 ± 0.02 | –
